Activity calls are given as the source filed them.
What was measured:
[1] = target: Botulinum neurotoxin type A (Clostridium botulinum (strain Hall / ATCC 3502 / NCTC 13319 / Type A), UniProt P0DPI1); experiment: High-throughput multiplex microsphere dose response for inhibitors of toxin protease, specifically Botulinum neurotoxin light chain A protease, compounds from Cherry Pick 02.; assay type: functional; details: read-out: EC50_MICROM
[2] = Luminescence Cell-Based Dose Response HTS to Identify Activators of Luciferase Translation or Activity in H4 […] Cells. [Related pubchem assays: 1829 (Project Summary), 1814 (Primary HTS)]; assay type: functional
[3] = tested on: H4; experiment: Luminescence Cell-Based Dose Response HTS to Identify Activators of 5'UTR Stem-Loop Driven Prion Protein mRNA Translation in H4 Neuroglioblastoma Cells. [Related pubchem assays: 1829 (Project Summary), 1814 (Primary HTS)]; assay type: functional; details: Homo sapiens
[4] = target: Multidrug resistance protein CDR1 (Candida albicans, UniProt P43071); experiment: inhibition of Nile Red efflux via Candida CDR1 – S. cerevisiae AD1-8u, singleplex, Cherry Pick1 hits, dose response (AID 588606); assay type: functional
[5] = tested on: INS1; experiment: beta-cell survival under cytokine stress – INS-1E, ATP luminescence, dry powder, dose response (AID 488844); assay type: functional, cell-based; details: Rattus norvegicus
[6] = suppression of NO production in INS-1E cells – cell-based, Griess absorbance, dry powder, set 3, dose response (AID 488870); assay type: functional; details: Rattus norvegicus
[7] = tested on: INS1; experiment: suppression of NO production in INS-1E cells – cell-based, Griess absorbance, dry powder, set 2, dose response (AID 488868); assay type: functional; details: Rattus norvegicus
[8] = tested on: INS1; experiment: INS-1E mitochondrial potential rescue under cytokines – cell-based, JC-1 fluorescence ratio, dry powder, dose response (AID 488931); assay type: functional; details: Rattus norvegicus
[9] = target: Apoptotic protease-activating factor 1 (Homo sapiens, UniProt O14727); experiment: SAR analysis of small molecule inhibitors of Apaf-1 in a Fluorescent assay.; assay type: functional; details: read-out: IC50_Mean
[10] = target: Sphingosine 1-phosphate receptor 1 (Homo sapiens, UniProt P21453); experiment: Late-stage fluorescence-based dose-response cell-based counterscreen assay to identify agonists of the Sphingosine 1-Phosphate Receptor 4 (S1P4): Sphingosine 1-Phosphate Receptor 1 (S1P1) agonist assay Set 2.; assay type: functional
[11] = target: Sphingosine 1-phosphate receptor 5 (Homo sapiens, UniProt Q9H228); experiment: activation of human S1P5 receptor – cell-based, fluorescence, set 2, counter-screen for S1P4 agonist project, late-stage follow-up (AID 504867); assay type: functional
[12] = target: Sphingosine 1-phosphate receptor 3 (Homo sapiens, UniProt Q99500); experiment: Late-stage fluorescence-based dose-response cell-based counterscreen assay to identify agonists of the Sphingosine 1-Phosphate Receptor 4 (S1P4): Sphingosine 1-Phosphate Receptor 3 (S1P3) agonist assay Set 2.; assay type: functional
[13] = target: Sphingosine 1-phosphate receptor 2 (Homo sapiens, UniProt O95136); experiment: activation of human S1P2 receptor – cell-based, fluorescence, set 2, counter-screen for S1P4 agonist project, late-stage follow-up (AID 504873); assay type: functional
[14] = tested on: HEK293; experiment: EBV LMP1 TES2 canonical NF-kB signalling blockers – cell-based, HEK293, luciferase, cherry-pick, dose response (AID 588343); assay type: functional; details: Homo sapiens
[15] = target: Latent membrane protein 1 (Human herpesvirus 4 (strain B95-8), UniProt P03230); experiment: LMP1 TES1 pathway selectivity over dsRED control – imaging, HEK293T, dual-color eGFP/dsRED, cherry-picks, selectivity assay for LMP1 NF-kB inhibitor project, dose response (AID 588398); assay type: functional, cell-based
[16] = target: Photoreceptor-specific nuclear receptor (Homo sapiens, UniProt Q9Y5X4); assay type: functional, cell-based;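 further: CHO-S cells with Gal4-NCOR and VP16-NR2E3 two-hybrid luciferase reporter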
[17] = target: DNA dC->dU-editing enzyme APOBEC-3G (Homo sapiens, UniProt Q9HC16); experiment: inhibition of APOBEC3G ssDNA deamination – biochemical, fluorescence, single-stranded DNA substrate, SAR follow-up (AID 602136); assay type: functional; details: read-out: IC50_Mean
[18] = target: DNA dC->dU-editing enzyme APOBEC-3A (Homo sapiens, UniProt P31941); experiment: SAR analysis of small molecule inhibitors of APOBEC3A DNA Deaminase via a fluorescence-based single-stranded DNA deaminase assay.; assay type: functional; details: read-out: IC50_Mean
[19] = target: Casein kinase I isoform alpha (Homo sapiens, UniProt P48729); assay type: functional
[20] = target: Focal adhesion kinase 1 (Homo sapiens, UniProt Q05397); assay type: functional;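 further: measured as one member of a kinome panel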
[21] = target: Dual specificity protein kinase CLK4 (Homo sapiens, UniProt Q9HAZ1); assay type: functional
Dual specificity protein kinase CLK4, sequence (Q9HAZ1 whole entry): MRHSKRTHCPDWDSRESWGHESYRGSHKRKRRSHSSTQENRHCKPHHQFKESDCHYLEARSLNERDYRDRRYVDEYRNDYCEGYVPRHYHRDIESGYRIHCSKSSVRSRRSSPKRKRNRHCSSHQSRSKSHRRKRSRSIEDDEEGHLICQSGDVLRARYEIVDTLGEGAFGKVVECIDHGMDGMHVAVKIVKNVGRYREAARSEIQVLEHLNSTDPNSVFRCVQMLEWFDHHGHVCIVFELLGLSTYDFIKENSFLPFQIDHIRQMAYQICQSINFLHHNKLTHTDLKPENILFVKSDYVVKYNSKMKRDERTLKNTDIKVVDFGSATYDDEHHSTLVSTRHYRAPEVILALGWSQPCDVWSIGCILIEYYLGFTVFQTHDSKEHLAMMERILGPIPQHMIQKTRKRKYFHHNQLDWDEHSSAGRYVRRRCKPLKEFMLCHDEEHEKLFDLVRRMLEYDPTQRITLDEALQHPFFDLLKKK

Sphingosine 1-phosphate receptor 3, sequence (Q99500 whole entry): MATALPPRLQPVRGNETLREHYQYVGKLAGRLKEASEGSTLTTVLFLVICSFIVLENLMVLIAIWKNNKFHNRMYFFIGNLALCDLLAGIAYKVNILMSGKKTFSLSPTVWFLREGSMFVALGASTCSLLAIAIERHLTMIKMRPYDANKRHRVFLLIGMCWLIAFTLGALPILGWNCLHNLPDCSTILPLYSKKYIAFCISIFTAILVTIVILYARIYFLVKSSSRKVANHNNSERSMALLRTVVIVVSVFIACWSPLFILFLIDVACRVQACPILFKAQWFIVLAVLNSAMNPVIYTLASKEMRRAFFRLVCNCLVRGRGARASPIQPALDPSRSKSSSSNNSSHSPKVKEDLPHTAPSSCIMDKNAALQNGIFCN
Focal adhesion kinase 1, sequence (Q05397 whole entry): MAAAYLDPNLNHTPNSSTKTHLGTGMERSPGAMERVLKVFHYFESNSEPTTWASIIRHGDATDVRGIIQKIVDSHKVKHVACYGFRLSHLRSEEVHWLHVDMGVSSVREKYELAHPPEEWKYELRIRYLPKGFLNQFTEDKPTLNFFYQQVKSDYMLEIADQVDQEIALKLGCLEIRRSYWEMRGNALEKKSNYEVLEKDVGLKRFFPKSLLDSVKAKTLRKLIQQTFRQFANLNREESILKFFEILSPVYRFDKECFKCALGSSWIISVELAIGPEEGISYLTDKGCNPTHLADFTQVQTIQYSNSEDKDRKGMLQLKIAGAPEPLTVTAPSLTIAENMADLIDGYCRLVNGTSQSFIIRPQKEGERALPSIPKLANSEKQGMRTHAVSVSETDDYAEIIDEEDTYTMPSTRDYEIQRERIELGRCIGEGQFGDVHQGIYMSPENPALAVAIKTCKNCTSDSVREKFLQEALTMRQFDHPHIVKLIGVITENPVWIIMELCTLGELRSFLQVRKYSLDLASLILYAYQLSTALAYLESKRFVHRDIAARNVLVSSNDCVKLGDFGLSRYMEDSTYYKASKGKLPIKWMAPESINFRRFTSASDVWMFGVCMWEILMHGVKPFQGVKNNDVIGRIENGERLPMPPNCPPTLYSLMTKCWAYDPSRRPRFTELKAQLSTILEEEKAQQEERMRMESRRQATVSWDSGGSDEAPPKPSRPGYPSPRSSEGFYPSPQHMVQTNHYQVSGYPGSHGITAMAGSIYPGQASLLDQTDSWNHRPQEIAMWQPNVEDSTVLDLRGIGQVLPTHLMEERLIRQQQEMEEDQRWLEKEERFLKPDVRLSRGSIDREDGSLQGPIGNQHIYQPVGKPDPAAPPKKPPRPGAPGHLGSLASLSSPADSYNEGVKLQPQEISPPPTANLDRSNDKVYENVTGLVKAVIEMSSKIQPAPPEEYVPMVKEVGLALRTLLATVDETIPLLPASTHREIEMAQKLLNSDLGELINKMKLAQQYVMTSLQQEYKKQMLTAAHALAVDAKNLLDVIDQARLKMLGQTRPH
Apoptotic protease-activating factor 1, sequence (O14727 whole entry): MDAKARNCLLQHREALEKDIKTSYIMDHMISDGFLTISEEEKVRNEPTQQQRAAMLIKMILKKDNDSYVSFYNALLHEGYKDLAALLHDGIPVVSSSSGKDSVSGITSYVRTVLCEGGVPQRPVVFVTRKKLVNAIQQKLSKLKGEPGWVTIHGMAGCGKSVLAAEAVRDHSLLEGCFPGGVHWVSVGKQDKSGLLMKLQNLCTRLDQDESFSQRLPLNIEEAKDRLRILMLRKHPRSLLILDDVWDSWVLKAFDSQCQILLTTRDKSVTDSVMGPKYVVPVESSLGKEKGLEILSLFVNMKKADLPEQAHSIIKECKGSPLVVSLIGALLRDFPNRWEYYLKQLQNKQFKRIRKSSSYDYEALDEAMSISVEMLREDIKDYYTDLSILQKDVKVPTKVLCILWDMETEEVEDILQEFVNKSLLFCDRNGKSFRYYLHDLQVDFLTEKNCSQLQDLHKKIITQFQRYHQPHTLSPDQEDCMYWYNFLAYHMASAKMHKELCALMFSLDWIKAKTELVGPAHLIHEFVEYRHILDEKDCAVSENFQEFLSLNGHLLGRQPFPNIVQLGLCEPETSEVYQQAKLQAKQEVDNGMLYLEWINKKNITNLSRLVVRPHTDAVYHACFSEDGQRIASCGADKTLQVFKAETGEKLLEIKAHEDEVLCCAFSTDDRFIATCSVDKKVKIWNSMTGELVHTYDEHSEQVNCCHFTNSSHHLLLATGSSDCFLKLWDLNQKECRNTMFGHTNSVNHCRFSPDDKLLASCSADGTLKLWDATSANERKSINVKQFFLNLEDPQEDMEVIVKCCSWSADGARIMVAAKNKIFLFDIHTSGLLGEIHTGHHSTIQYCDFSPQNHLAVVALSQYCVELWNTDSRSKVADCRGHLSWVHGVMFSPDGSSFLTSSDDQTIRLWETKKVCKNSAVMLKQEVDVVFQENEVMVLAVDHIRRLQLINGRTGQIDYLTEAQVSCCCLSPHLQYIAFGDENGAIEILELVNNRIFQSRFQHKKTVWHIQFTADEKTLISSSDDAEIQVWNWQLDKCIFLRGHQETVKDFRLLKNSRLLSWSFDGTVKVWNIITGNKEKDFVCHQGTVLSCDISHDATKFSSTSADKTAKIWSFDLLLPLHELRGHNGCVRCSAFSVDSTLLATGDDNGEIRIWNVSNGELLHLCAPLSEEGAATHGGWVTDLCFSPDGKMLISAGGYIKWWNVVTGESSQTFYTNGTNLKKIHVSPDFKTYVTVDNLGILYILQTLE
DNA dC->dU-editing enzyme APOBEC-3A, sequence (P31941 whole entry, canonical isoform): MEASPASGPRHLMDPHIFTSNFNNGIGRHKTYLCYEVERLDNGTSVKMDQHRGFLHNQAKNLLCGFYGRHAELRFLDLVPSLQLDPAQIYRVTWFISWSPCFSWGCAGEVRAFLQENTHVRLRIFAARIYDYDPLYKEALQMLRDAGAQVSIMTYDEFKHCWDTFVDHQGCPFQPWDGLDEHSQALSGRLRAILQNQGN
DNA dC->dU-editing enzyme APOBEC-3G, sequence (Q9HC16 whole entry): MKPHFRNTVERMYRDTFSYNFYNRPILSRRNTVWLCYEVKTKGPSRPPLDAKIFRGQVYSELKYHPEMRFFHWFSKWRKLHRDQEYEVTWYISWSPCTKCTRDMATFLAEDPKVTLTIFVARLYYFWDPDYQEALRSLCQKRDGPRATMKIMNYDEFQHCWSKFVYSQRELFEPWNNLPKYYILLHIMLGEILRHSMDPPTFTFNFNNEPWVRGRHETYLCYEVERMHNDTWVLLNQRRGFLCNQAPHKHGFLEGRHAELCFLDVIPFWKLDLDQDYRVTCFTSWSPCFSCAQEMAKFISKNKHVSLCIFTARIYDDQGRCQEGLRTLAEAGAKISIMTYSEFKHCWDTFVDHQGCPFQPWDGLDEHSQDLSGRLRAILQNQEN
Sphingosine 1-phosphate receptor 1, sequence (P21453 whole entry): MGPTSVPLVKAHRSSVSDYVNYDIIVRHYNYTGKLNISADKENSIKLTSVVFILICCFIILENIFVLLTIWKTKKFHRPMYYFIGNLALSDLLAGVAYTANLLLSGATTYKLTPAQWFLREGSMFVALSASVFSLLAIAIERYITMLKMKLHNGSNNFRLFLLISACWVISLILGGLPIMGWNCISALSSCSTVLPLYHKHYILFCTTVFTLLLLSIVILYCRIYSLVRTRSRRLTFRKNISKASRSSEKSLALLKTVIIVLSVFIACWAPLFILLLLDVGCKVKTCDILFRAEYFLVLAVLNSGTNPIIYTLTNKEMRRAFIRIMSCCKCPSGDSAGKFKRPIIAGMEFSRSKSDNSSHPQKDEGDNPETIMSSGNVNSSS
Sphingosine 1-phosphate receptor 5, sequence (Q9H228 whole entry): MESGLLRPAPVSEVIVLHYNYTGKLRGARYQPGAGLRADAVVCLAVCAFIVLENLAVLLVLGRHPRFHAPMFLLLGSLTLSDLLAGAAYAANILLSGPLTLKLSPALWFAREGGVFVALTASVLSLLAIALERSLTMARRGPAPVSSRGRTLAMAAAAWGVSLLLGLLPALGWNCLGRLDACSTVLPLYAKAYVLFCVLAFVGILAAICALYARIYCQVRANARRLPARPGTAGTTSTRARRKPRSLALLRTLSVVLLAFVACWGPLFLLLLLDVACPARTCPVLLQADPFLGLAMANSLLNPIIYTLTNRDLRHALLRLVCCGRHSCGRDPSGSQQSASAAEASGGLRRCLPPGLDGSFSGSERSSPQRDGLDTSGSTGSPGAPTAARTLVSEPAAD
Botulinum neurotoxin type A, sequence (P0DPI1 2-448 limits assumed): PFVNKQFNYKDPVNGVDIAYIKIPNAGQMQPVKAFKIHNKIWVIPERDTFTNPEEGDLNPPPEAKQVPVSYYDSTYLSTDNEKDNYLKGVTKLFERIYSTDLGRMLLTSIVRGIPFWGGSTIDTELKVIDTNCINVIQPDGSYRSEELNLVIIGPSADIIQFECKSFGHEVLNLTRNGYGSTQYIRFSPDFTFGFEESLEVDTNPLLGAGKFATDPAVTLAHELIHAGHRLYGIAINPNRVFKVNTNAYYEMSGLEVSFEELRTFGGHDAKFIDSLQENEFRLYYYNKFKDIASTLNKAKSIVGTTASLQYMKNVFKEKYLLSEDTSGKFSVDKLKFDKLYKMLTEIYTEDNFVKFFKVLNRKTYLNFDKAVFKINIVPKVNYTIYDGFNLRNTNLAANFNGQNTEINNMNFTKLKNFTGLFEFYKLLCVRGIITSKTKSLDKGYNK

In the case of Cc1onc(-c2ccccc2Cl)c1C(=O)NCc1ccc2c(c1)cc(C)n2C, the EC50 [1] is reported as 4.2 µM (active).

In the case of O=C(/C=C/c1ccccc1Cl)NCCc1ccccc1, the EC50 [2] is reported as 4.27 µM (active), the EC50 [3] is reported as > 120 µM (not active) and the EC50 [4] is reported as 0.514 µM (active).

In the case of COc1ccc(S(=O)(=O)N(C)C[C@@H]2Oc3c(NC(=O)Nc4cccc5ccccc45)cccc3C(=O)N([C@@H](C)CO)C[C@H]2C)cc1F, the AC50 [5] is reported as 23.2 µM (active), the AC50 [6] is reported as 60.8 µM (active) and the AC50 [7] is reported as 26.7 µM (active). For the same compound, the AC50 [8] was > 195 µM (inactive).

For CCN(CC)CCOC(=O)c1ccc(N/C=C(\C#N)c2nc(-c3ccc(Cl)c(Cl)c3)cs2)cc1, the IC50 [9] was 6.88 µM (active).

With CC/N=C1/S/C(=C/c2cc(C)n(Cc3ccccc3)c2C)C(=O)N1CC the EC50 [10] was 0.185 µM (active), the EC50 [11] was 0.0631 µM (active) and the EC50 [12] was 12.9 µM (inactive). For the same compound, the EC50 [13] was 3.28 µM (active).

With S=C(NN=Cc1ccccn1)Nc1ccccn1 the AC50 [14] was 21.5 µM (active), the AC50 [15] was 10.7 µM (active) and the IC50 [16] was 7.61 µM (active).

In the case of O=C1NC(=S)NC(=O)C1=Cc1ccc2c(c1)CCN2Cc1ccccc1Cl, the IC50 [17] is reported as 77.5 µM (inactive) and the IC50 [18] is reported as 9.78 µM (active).

For Cc1cc(C(C)Nc2ccccc2)c2nc(N3CCOCC3)cc(=O)n2c1 (stereo unspecified), the Ki [19] was 2 µM (active), the Ki [20] was 2.51 µM (active) and the Ki [21] was 2.51 µM (active).
